Data: ChEMBL document CHEMBL1141639, “Synthesis and heme-binding correlation with antimalarial activity of 3,6-bis-(omega-N,N-diethylaminoamyloxy)-4,5-difluoroxanthone” (Bioorg Med Chem, 2008)

How the values were obtained:
Plasmodium falciparum [1] = test: Antimalarial activity against Plasmodium falciparum W2 in MSF assay; format: functional, organism-based
[2] = Binding affinity to heme in aqueous solution
Plasmodium falciparum [3] = test: Antimalarial activity against Plasmodium falciparum D6 in MSF assay; format: functional, organism-based

Row | SMILES | IC50 (Plasmodium falciparum [1]) [nM] | Ka [2] | IC50 (Plasmodium falciparum [3]) [nM]
1 | CCN(CC)CCCCCOc1ccc2c(=O)c3ccc(OCCCCCN(CC)CC)cc3oc2c1 | 120 | 8.2 10^5/M | 180
2 | O[C@@H](c1cc(C(F)(F)F)nc2c(C(F)(F)F)cccc12)[C@H]1CCCCN1 [MEFLOQUINE] | 0.7 | 0.1 10^5/M | 5.9
3 | CCN(CC)CCCCCOc1ccc2c(=O)c3ccc(OCCCCCN(CC)CC)c(F)c3oc2c1F | 150 | 0.6 10^5/M | 93
4 | C=CC1CN2CC[C@H]1C[C@H]2[C@H](O)c1ccnc2ccc(OC)cc12 (single isomer, unassigned) [QUININE] | 60 | 0.2 10^5/M | 11
